Laboratory results as given in patent US20240083839A1, “COMPOSITIONS AND METHODS FOR TREATING NEURODEGENERATIVE DISEASES AND DISORDERS” (The Regents of the University of California, priority 2020, published 2024).
Counter-ions that a name gives are not always drawn.

Test system: SirT1 levels in N2a-E4 cells
Assay: SirT1 levels by AlphaLISA in ApoE4-transfected N2a cells
Format: cell-based, murine
Conditions: not given
Protocol: Prompted by the emerging importance of the associations between ApoE4 and the expression/protein levels of SirT1, high-throughput screening (HTS) of the UCLA compound library was performed using AlphaLISA to detect SirT1 levels in murine neuroblastoma cells stably transfected with ApoE4 (E4-N2a) to identify SirT1 enhancers. […] In the in vivo study, mice were treated orally at 40 mkd (20 mg/kg BID) for 56 days and underwent assessment of cognition in the Novel Object Recognition (NOR) testing paradigm. […] The performance of A03-treated E4-AD mice (FIG. 5A) improved to level of non-transgenic vehicle-treated mice.
Wherever PAMPA is given: unit not given here.

SMILES | SirT1 SOμM | SirT1 SμM
C[C@H](NC(=O)OC(C)(C)C)C(=O)N[C@H]1CCC[C@H]1c1ccc(Cl)cc1 (mixture of isomers) [MP-95, tert-butyl-((S)-1-(((±)-cis-2-(4-chlorophenyl)cyclopentyl)amino)-1-oxopropan-2-yl)carbamate] | a, a (a <250%) | a, a (a <250%)
C[C@H](N)C(=O)N[C@H]1CCCCNC1=O.Cl (racemic) [MP-103, (S)-2-amino-N—((S)-2-oxoazepan-3-yl)propanamide hydrochloride] | a, a (a <250%) | a, a (a <250%)
C[C@H](N)C(=O)OC1(Cc2ccc(Cl)cc2)CCNC1 (single isomer, unassigned) [MP-32, 3-(4-chlorobenzyl)pyrrolidin-3-yl L-alaninate] | C (C = 100% increase versus control) | A (A >20%)
C[C@H](N)C(=O)OC1(Cc2ccc(Cl)cc2)CCNC1 (single isomer, unassigned) [MP-33, 3-(4-chlorobenzyl)pyrrolidin-3-yl L-alaninate] | C (C = 100% increase versus control) | A (A >20%)
C[C@H](NC(=O)OC(C)(C)C)C(=O)O[C@H]1CCC[C@@H]1c1ccc(Cl)cc1 (single isomer, unassigned) [MP-87] | a, a (a <250%) | a, a (a <250%)
C[C@H](NC(=O)OC(C)(C)C)C(=O)O[C@H]1CCC[C@@H]1c1ccc(Cl)cc1 (single isomer, unassigned) [MP-88] | a, a (a <250%) | a, a (a <250%)
C[C@H](N)C(=O)O[C@@H]1CCC[C@H]1c1ccc(Cl)cc1.Cl (single isomer, unassigned) [MP-90] | a, a (a <250%) | a, a (a <250%)
C[C@H](NC(=O)OC(C)(C)C)C(=O)O[C@H]1CCC[C@H]1c1ccc(Cl)cc1 (single isomer, unassigned) [MP-91] | a, a (a <250%) | a, a (a <250%)
C[C@H](NC(=O)OC(C)(C)C)C(=O)O[C@H]1CCC[C@H]1c1ccc(Cl)cc1 (single isomer, unassigned) [MP-92] | a, a (a <250%) | a, a (a <250%)
C[C@H](N)C(=O)O[C@@H]1CCC[C@@H]1c1ccc(Cl)cc1.Cl (single isomer, unassigned) [MP-93] | C (C = 100% increase versus control) | A (A >20%)
C[C@H](N)C(=O)O[C@H]1CCC[C@H]1c1ccc(Cl)cc1.Cl (single isomer, unassigned) [MP-94] | A (A >20%) | a (a <250%)
C[C@H](NC(=O)OC(C)(C)C)C(=O)N[C@@H]1CCC[C@@H]1c1ccc(Cl)cc1 (single isomer, unassigned) [MP-96] | a, a (a <250%) | a, a (a <250%)
C[C@@H](N)C(=O)OC1(Cc2ccc(Cl)cc2)CCNCC1 (stereo in doubt) [MP-49, 4-(4-chlorobenzyl)piperidin-4-yl alaninate] | B (B >50%) | A (A >20%)
C[C@H](NC(=O)OC(C)(C)C)C(=O)N(C)[C@H]1CCC(c2ccc(Cl)c(Cl)c2)c2ccccc21 (stereo in doubt) [MP-80, tert-butyl ((S)-1-(((1S,4R)-4-(3,4-dichlorophenyl)-1,2,3,4-tetrahydronaphthalen-1-yl)(methyl)amino)-1-oxopropan-2-yl)carbamate] | a, a (a <250%) | a, a (a <250%)
C[C@H](N)C(=O)N(C)[C@H]1CCC(c2ccc(Cl)c(Cl)c2)c2ccccc21.Cl (stereo in doubt) [MP-81, (S)-2-amino-N-((1S,4R)-4-(3,4-dichlorophenyl)-1,2,3,4-tetrahydronaphthalen-1-yl)-N-methylpropanamide hydrochloride] | B, B (B >50%) | B, B (B >50%)
O=C1NCc2ccccc2C[C@@H]1N[C@@H](c1ccccc1)[C@H](O)c1ccccc1 (stereo in doubt) [MP-102, 4(R)-(1R,2S)-1,2-diphenyl-2-hydroxyethylamino-2,3,4,5-tetrahydro-1H-2-benzazepin-3-one] | a, a (a <250%) | a, a (a <250%)
C[C@H](N)C(=O)Nc1cccc2ccccc12 [MP-54, (S)-2-amino-N-(naphthalen-1-yl)propanamide] | C (C = 100% increase versus control) | A (A >20%)

SMILES | SirT1 SOμM | SirT1 SμM
C[C@H](Nc1ccccc1-c1ccccc1)C(N)=O [MP-60] | B (B >50%) | A (A >20%)
N[C@H]1Cc2ccccc2CNC1=O [MP-71, (S)-4-amino-4,5-dihydro-1H-benzo[c]azepin-3(2H)-one hydrochloride] | C (C = 100% increase versus control) | B (B >50%)
C[C@H](NC(=O)OC(C)(C)C)C(=O)OC(C)(C)Cc1ccc(C(F)(F)F)cc1 [MP-75, 2-methyl-1-(4-(trifluoromethyl)phenyl)propan-2-yl 2-((tert-butoxycarbonyl)amino)propanoate] | a, a (a <250%) | a, a (a <250%)
C[C@H](N)C(=O)NC(C)(C)Cc1ccc(F)cc1.Cl [MP-83, (S)-2-amino-N-(1-(4-fluorophenyl)-2-methylpropan-2-yl)propanamide hydrochloride] | A (A >20%) | a (a <250%)
C[C@H](N)C(=O)NC1CCc2ccccc2NC1=O (stereo partly drawn) [MP-84, (2S)-2-amino-N-(2-oxo-2,3,4,5-tetrahydro-1H-benzo[b]azepin-3-yl)propanamide hydrochloride] | A (A >20%) | a (a <250%)
C[C@H](NC(=O)OC(C)(C)C)C(=O)N[C@H]1CCC[C@@H]1c1ccc(Cl)cc1 [MP-85, tert-butyl ((S)-1-(((1S,2R)-2-(4-chlorophenyl)cyclopentyl)amino)-1-oxopropan-2-yl)carbamate] | a, a (a <250%) | a, a (a <250%)
C[C@H](N)C(=O)N[C@H]1CCC[C@@H]1c1ccc(Cl)cc1.Cl [MP-86, (S)-2-amino-N-((1S,2R)-2-(4-chlorophenyl)cyclopentyl)propanamide] | B (B >50%) | A (A >20%)
C[C@H](N)C(=O)O[C@@H]1CCC[C@H]1c1ccc(Cl)cc1.Cl [MP-89, (S)-(1R,2S)-2-(4-chlorophenyl)cyclopentyl 2-aminopropanoate hydrochloride] | A (A >20%) | a (a <250%)
C[C@H](N)C(=O)NC(C)(C)Cc1ccncc1.Cl [MP-100, (S)-2-amino-N-(2-methyl-1-(pyridin-4-yl)propan-2-yl)propanamide hydrochloride] | A, A (A >20%) | A, A (A >20%)
C[C@H](N)C(=O)NC(C)(C)c1ccc(Cl)cc1.Cl [MP-101, (S)-2-amino-N-(2-(4-chlorophenyl)propan-2-yl)propanamide hydrochloride] | B (B >50%) | a (a <250%)
C[C@H](N)C(=O)N[C@H]1Cc2ccccc2CN(C)C1=O.Cl [MP-104, (S)-2-amino-N—((S)-2-methyl-3-oxo-2,3,4,5-tetrahydro-1H-benzo[c]azepin-4-yl)propanamide hydrochloride] | A (A >20%) | a (a <250%)
C[C@H](N)C(=O)N[C@H]1Cc2ccccc2CNC1=O.Cl [MP-105, (S)-2-amino-N—((S)-3-oxo-2,3,4,5-tetrahydro-1H-benzo[c]azepin-4-yl)propanamide hydrochloride] | a, a (a <250%) | a, a (a <250%)
C[C@H](N)C(=O)NC(C)(Cc1cc(F)cc(F)c1)Cc1cc(F)cc(F)c1 [MP-106, (S)-2-amino-N-(1,3-bis(3,5-difluorophenyl)-2-methylpropan-2-yl)propanamide hydrochloride] | a, a (a <250%) | a, a (a <250%)
N[C@@H](CO)C(=O)NCCc1ccc(Cl)cc1 [MP-107] | A, A (A >20%) | A, A (A >20%)
CN1Cc2ccccc2C[C@H](N)C1=O [MP-108] | A, A (A >20%) | A, A (A >20%)
Cl.N[C@H]1Cc2cc(Cl)ccc2CNC1=O [MP-109, (S)-4-amino-7-chloro-4,5-dihydro-1H-benzo[c]azepin-3(2H)-one] | B (B >50%) | A (A >20%)

Same assay, conditions: N2a-E4 cells

SMILES | SirT1 increase
Cl.N[C@H]1Cc2cc(Cl)ccc2CNC1=O [MP-109, (S)-4-amino-7-chloro-4,5-dihydro-1H-benzo[c]azepin-3(2H)-one] | increases SirT1
CNCCC(Oc1ccc(C(F)(F)F)cc1)c1ccccc1 (stereo not drawn) [fluoxetine, reference compound] | did not increase SirT1
CC12CC3CC(C)(C1)CC(N)(C3)C2 [memantine, reference compound] | did not increase SirT1

Test system: not listed separately
Assay: PAMPA
Conditions: not given

SMILES | PAMPA
C[C@H](N)C(=O)OC1(Cc2ccc(Cl)cc2)CCNC1 (single isomer, unassigned) [MP-32, 3-(4-chlorobenzyl)pyrrolidin-3-yl L-alaninate] | 0.68
C[C@H](N)C(=O)OC1(Cc2ccc(Cl)cc2)CCNC1 (single isomer, unassigned) [MP-33, 3-(4-chlorobenzyl)pyrrolidin-3-yl L-alaninate] | 0.7
C[C@@H](N)C(=O)OC1(Cc2ccc(Cl)cc2)CCNCC1 (stereo in doubt) [MP-49, 4-(4-chlorobenzyl)piperidin-4-yl alaninate] | 1.02(2)
